# Source: publication PMC9544171, “Glucose‐dependent insulinotropic polypeptide receptor antagonist treatment causes a reduction in weight gain in ovariectomised high fat diet‐fed mice” (British Journal of Pharmacology, 2022)
# Where a SMILES comes first, the peptide text is derived from it. The star is where a group is joined. C16 diacid = O=C(O)CCCCCCCCCCCCCCC(=O)*
# Key:
# human GIP receptor = target: T1, human GIP receptor (Homo sapiens, UniProt P48546); test: cAMP accumulation, agonism (intrinsic activity) in transfected COS‐7 cells; type: cell-based; details: increasing concentrations of ligand alone, 30 min, COS‐7, n = 5
# T1 construct: host or cells: COS-7
# T1 sequence (P48546 22-466): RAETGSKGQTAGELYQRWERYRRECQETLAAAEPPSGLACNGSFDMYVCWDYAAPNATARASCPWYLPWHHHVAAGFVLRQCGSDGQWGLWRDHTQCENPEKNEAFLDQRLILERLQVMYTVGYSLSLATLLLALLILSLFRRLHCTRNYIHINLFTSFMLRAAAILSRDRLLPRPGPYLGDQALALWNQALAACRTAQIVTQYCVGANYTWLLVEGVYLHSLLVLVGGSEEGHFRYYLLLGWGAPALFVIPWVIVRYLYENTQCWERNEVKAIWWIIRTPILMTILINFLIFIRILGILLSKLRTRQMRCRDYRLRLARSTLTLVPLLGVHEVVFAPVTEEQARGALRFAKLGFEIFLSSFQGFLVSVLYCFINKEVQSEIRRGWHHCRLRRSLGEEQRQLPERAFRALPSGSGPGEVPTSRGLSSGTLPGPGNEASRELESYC
# Procedure: (§1) COS‐7 cells were cultured at 10% CO2 and 37°C in Dulbecco's Modified Eagle Medium 1885 supplemented with 10% foetal bovine serum, 2‐mM glutamine, 180‐units ml^−1 penicillin and […] streptomycin. Transient transfection of the cells with either human or mouse GIP receptor was performed using the calcium phosphate precipitation method as previously described (van der Velden et al., [2021]). A second set of cells was transiently transfected with either mouse GLP‐1 or GLP‐2 receptor. Following the day after transfection, the cells were seeded in white 96‐well plates with a density of 35.000 cells per well. The next day the assay was initiated by washing the cells with HEPES buffered saline (HBS) followed by an incubation step with HBS and 1‐mM 3‐isobutyl‐1‐methylxanthine for 30 min at 37°C. For agonist studies, the ligands were then added and incubated for an additional 30 min at 37°C. To test for antagonistic properties, the cells were first preincubated for 10 min with the antagonist with subsequent addition of the agonist and incubated for an additional 20 min. The HitHunter® cAMP assay (Eurofins DiscoverX, Fremont, USA) was carried out according to the manufacturer's protocol. Luminescence was measured by PerkinElmer™ Envision 2014 Multilabel Reader.
# (§2) To facilitate comparisons of assay outputs (cAMP assays), the results (of duplicate measurements) were normalized, with the response to 10 pM of GIP(1‐42) set as 100%. All ligand concentrations are reported as log‐transformed. The IC50 log values can be found in Figure 1. In Figure 3c, we have subtracted glucose levels from baseline to show the net differences in glucose levels in our different treatment groups.
# (§3) FIGURE 1 In vitro signalling profile of mGIPAnt‐1 on the mouse and human glucose‐dependent insulinotropic polypeptide receptor/(GIPR). COS‐7 cells were transiently transfected with (a) mouse GIPR or (b) human GIPR and assayed for cAMP accumulation. To test for agonism, increasing concentration of the ligand was added. […]
# mouse GIP receptor [1] = target: T2, mouse GIP receptor (Mus musculus, UniProt Q0P543); test: as above; type: cell-based; details: increasing concentrations of ligand alone, 30 min, COS‐7, n = 5
# T2 construct: host or cells: COS-7
# T2 sequence (Q0P543 19-460): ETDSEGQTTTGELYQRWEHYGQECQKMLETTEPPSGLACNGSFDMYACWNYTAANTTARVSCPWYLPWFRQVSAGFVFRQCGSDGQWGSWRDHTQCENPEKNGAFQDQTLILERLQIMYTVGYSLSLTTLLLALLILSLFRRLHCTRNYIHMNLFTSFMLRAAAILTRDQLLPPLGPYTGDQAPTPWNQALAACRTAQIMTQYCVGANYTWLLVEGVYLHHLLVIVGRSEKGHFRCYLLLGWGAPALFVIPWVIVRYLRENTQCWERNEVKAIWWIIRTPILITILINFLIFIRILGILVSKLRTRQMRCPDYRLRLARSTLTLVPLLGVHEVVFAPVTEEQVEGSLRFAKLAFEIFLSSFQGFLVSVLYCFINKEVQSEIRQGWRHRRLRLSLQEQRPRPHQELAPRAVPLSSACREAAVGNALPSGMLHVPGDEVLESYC
# Procedure: as §1, §2, §3
# [2] = test system: Female ovariectomised C57Bl6/J mice; test: Oral glucose tolerance test after 7 weeks of treatment; type: in vivo, mouse
# Procedure: After 7 weeks HFD and mGIPAnt‐1 treatment, an oral glucose tolerance test was performed. Animals were fasted from 08:00 AM to 11:00 AM and received 2‐g·kg^−1 glucose through oral gavage. Blood glucose was measured in the tail vein samples using a hand‐held glucometer (Accu‐Chek Mobile, Roche) at t = 0, 15, 30, 45, 60, 120 and 180 min. Retro‐orbital blood samples (75 μl) were taken using EDTA coated glass capillaries at t = 0, 15, 30 and 60 min and centrifuged at 3500g, 20 min, 4°C. Plasma was transferred into Eppendorf tubes on dry ice and stored at −20°C for later analysis of insulin measurements.
# Insulin levels in intraperitoneal glucose tolerance test and oral glucose tolerance test plasma samples were measured using a mouse insulin ELISA (catalogue no. 10‐1247‐10; Mercodia AB, Uppsala, Sweden). Adiponectin levels in terminal plasma samples were measured using a mouse adiponectin ELISA kit (catalogue no. 80569, Crystal Chem, Elk Grove Village, IL, USA). Adiponectin samples were carefully diluted in kit‐specific assay buffer. The manufacturer's instructions were followed closely.
# mouse GIP receptor [3] = target: T2, mouse GIP receptor; test: cAMP accumulation, antagonism of mouse GIP(1‐42) in transfected COS‐7 cells; type: cell-based
# Procedure: as §1
# as §2, with “groups. […]” for “groups.”
# Results are presented as mean ± SE. Data were analysed with one‐way and two‐way analysis of variance (ANOVA) with Tukey's or Sidak multiple comparisons test and Student's unpaired t tests where appropriate. […] For the in vitro data IC50 values were determined by nonlinear regression using GraphPad Prism 9 (San Diego, California, USA). […]
smiles,measurement,setting,value
CC[C@H](C)[C@H](NC(=O)[C@H](CO)NC(=O)[C@H](Cc1ccc(O)cc1)NC(=O)[C@H](CC(=O)O)NC(=O)[C@H](CO)NC(=O)[C@@H](NC(=O)[C@H](Cc1ccccc1)NC(=O)[C@@H](NC(=O)CNC(=O)[C@@H](N)CCC(=O)O)[C@@H](C)O)[C@@H](C)CC)C(=O)N[C@@H](C)C(=O)N[C@@H](CCSC)C(=O)N[C@@H](CC(=O)O)C(=O)N[C@@H](CCCCN)C(=O)N[C@H](C(=O)N[C@@H](CCCCNC(=O)CCCCCCCCCCCCCCC(=O)O)C(=O)N[C@@H](CCC(N)=O)C(=O)N[C@@H](CCC(N)=O)C(=O)N[C@@H](CC(=O)O)C(=O)N[C@@H](Cc1ccccc1)C(=O)N[C@H](C(=O)N[C@@H](CC(N)=O)C(=O)N[C@@H](Cc1c[nH]c2ccccc12)C(=O)N[C@@H](CC(C)C)C(=O)N[C@@H](CC(C)C)C(=O)N[C@@H](C)C(=O)N[C@@H](CCC(N)=O)C(=O)N[C@@H](CCCCN)C(=O)NCC(=O)N[C@@H](CCCCN)C(=O)N[C@@H](CCCCN)C(=O)N[C@@H](CC(N)=O)C(=O)N[C@@H](CC(=O)O)C(=O)N[C@@H](Cc1c[nH]c2ccccc12)C(=O)N[C@@H](CCCCN)C(=O)N[C@@H](Cc1c[nH]cn1)C(=O)N[C@@H](CC(N)=O)C(=O)O)C(C)C)[C@@H](C)CC [mGIPAnt‐1] (H-EGTFISDYSIAMDKIK(C16 diacid)QQDFVNWLLAQKGKKNDWKHN-OH),"intrinsic activity (activation of human GIP receptor, cAMP)",human GIP receptor,no activation
same,"intrinsic activity (activation of mouse GIP receptor, cAMP)",mouse GIP receptor [1],no activation
same,"glucose curve and iAUC, OGTT","[2]; 7 weeks of 300 nmol·kg−1 s.c. daily, 2 g·kg−1 oral glucose",did not affect
same,"insulin curve and iAUC, OGTT","[2]; 7 weeks of 300 nmol·kg−1 s.c. daily, 2 g·kg−1 oral glucose, ELISA",did not affect
same,fasting insulin levels,[2]; 7 weeks of treatment,not affected
same,"fasting glucose levels, HFD","[2]; 7 weeks of treatment, versus Vehicle/HFD",significantly decreased
same,IC50,"mouse GIP receptor [3]; COS‐7 transiently transfected with mouse GIPR, 10 min preincubation with antagonist, then mouse GIP(1‐42) at 50%–80% of Emax for 20 min, HitHunter cAMP, Hill slope −1.0, n = 5 independent experiments, read-out: IC50, inhibition of mGIP‐induced cAMP accumulation, mouse GIPR",269 nM
same,potency relative to mGIP(3‐30)NH2 on the mouse GIP receptor,mouse GIP receptor [3]; ratio of IC50 813 nM / 269 nM,3 fold
